Each compound was assayed on tumor-induced angiogenesis (HCT116 cells) (assay: Assay for inhibitory activity against in vivo tumor-induced angiogenesis (intravital microscopy)). Conditions: 1 μmol in Matrigel with VEGF and HCT116 cells in abdominal window, four days, t-test p<0.01, FIGS. 4A and 4B.
Design: species or system BALB/c mice
Procedure: The inhibitory activity of the compounds of the present invention against angiogenesis was examined in vivo using intravital microscopy. Titanium windows (diameter 19 mm, inner diameter 14 mm, thickness 0.7 mm) were implanted in the abdominal walls male BALB/c mice, 6-8 weeks old, which had been anesthetized. A mixture of 100 μL Matrigel™ 20 ng VEGF, 1×10^5 HCT116 or HCT116 cells, and 1 μmol compound 75 was inserted into the tissues inside the window which was then covered with a cover slip and fixed with a snap ring. Four days later, 50 μL of 25 mg/mL fluorescein isothiocyanate-labeled dextran (Mw 250,000 Sigma) was injected via the tail vein to examine angiogenesis. Mice were then placed on a Zeiss Axiovert™ 200M microscope with a filter set (440-475 nm, excitation wavelength; 530-550 nm, emission wavelength). Fluorescence images were recorded in each window by an electron-multiplying CCD camera (Photon Max™ 521, Princeton Instruments) and digitized for subsequent off-line analysis using the MetaMorph™ program (Universal Imaging). The angiogenesis was scored from 0 (least positive) to 5 (most positive). Observations and degree of angiogenesis are shown in FIGS. 4A and 4B, respectively. […] Accordingly, the compound of the present invention was identified to inhibit angiogenesis in vivo.
With `CO/C=C(/C(=O)OC)c1ccccc1COc1cccc(/C=N/OCCOc2ccccc2)c1` [Compound 75, (E)-methyl 2-(2-((3-((E)-(2-phenoxyethoxyimino)methyl)phenoxy)-methyl)phenyl)-3-methoxyacrylate] the “degree of angiogenesis (score 0 to 5) versus HCT-116 group” value was “significant difference”.

The compounds below were run on HIF (assay: Assay for inhibitory activity against HIF activity (HIF1 luciferase reporter cell line)). Conditions: HEK293 HIF1 reporter cell line, 1% oxygen, 6 hours, luciferase activity 50% inhibited.
Type: cell-based, human
Source text: In order to assay the compounds of the present invention for inhibitory activity against HIF activity, the HIF1 reporter plasmid (Panomics) that is designed to control the expression of luciferase by HIF was employed. The HIF1 reporter plasmid and the pTK-Hyg plasmid (Clontech), which carries a hygromycin resistant gene, were co-transfected into the HEK293 cell line (the Korean Cell Line Bank, KCLB No. 21573), derived from the human kidney, with the aid of Effectene transfection reagent (Qiagen). Then, the cells were cultured for 3 weeks on a medium containing 200 μg/mL hygromycin to select transformants resistant to hygromycin. The cell colonies derived from single cells were transferred to 24-well plates to secure a reporter cell line. The cells were seeded at a density of 4×10^4 cells/well into 96-well plates containing DMEM and incubated for 24 hours before treatment with the compounds of the present invention at a concentration of 25 μM, 5 μM, 1 μM, 200 nM, 40 nM, 8 nM, 1.6 nM, 320 pM, 64 pM, 12.8 pM, 2.56 pM, 512 fM, 102 fM, 20.4 fM, or an amount between any two concentrations above as shown in FIGS. 1A to 1C. Under 1% oxygen condition, the cells were incubated for 6 hours and then, the medium was removed. The cells were lyzed by incubation for 5 min with 100 μL of the mixture of Bright-Glo™ luciferase assay buffer and Bright-Glo™ luciferase assay substrate (Promega). The whole cell lysate was transferred to 96-well, white plates (PerkinElmer) and measured for luminescence using Victor™ 3 (PerkinElmer). From the luminescence measurements, IC50 (a concentration of the compound at which luciferase activity was 50% inhibited) was calculated using the GraphPad Prism™ 4 program. The results are summarized in Table 2 and illustrated in FIGS. 1A to 1C.
With “(E)-methyl 2-(2-((3-hydroxy-5-(2-phenoxyethoxy)phenoxy)methyl)-phenyl)-3-methoxyacrylate [Compound 20]” the IC50 was 6060 nM.

Same assay, conditions: Homo sapiens; HEK293 HIF1 reporter cell line, 1% oxygen, 6 hours, luciferase activity 50% inhibited
Compound `CO/C=C(/C(=O)OC)c1ccccc1COc1cccc(/C=N/OCCOc2ccccc2)c1` [Compound 75, (E)-methyl 2-(2-((3-((E)-(2-phenoxyethoxyimino)methyl)phenoxy)-methyl)phenyl)-3-methoxyacrylate] has an IC50 of 150 nM.
Work on `CO/C=C(/C(=O)OC)c1ccccc1COc1ccc(/C=N/OC2CCCC2)cc1C` [Compound 70, (E)-methyl 2-(2-((4-((E)-(cyclopentyloxyimino)methyl)-2-methylphenoxy)methyl)phenyl)-3-methoxyacrylate] yielded an IC50 of 180 nM.
In the case of `CO/C=C(/C(=O)OC)c1ccccc1COc1cc(C)c(/C(COC)=N/OC)cc1C` [Compound 80, (E)-methyl 3-methoxy-2-(2-((4-((Z)-2-methoxy-1-(methoxyimino)ethyl)-2,5-dimethylphenoxy)methyl)phenyl)acrylate], the IC50 is reported as 9 nM.
`CO/C=C(/C(=O)OC)c1ccccc1COc1cccc(OCCO)c1` [Compound 12, (E)-methyl 2-(2-((3-(2-hydroxyethoxy)phenoxy)methyl)phenyl)-3-methoxyacrylate] was tested, and the IC50 was 5990 nM.
`CO/C=C(/C(=O)OC)c1ccccc1COc1cccc(OCCNCCO)c1` [Compound 11, (E)-methyl 2-(2-((3-(2-(2-hydroxyethylamino)ethoxy)phenoxy)methyl)-phenyl)-3-methoxyacrylate] showed an IC50 of 640 nM.
`CO/C=C(/C(=O)OC)c1ccccc1COc1cc(C)c(/C=N/OCCOc2ccccc2)cc1C` [Compound 51, (E)-methyl 2-(2-((2,5-dimethyl-4-((E)-(2-phenoxyethoxyimino)methyl)-phenoxy)methyl)phenyl)-3-methoxyacrylate] showed an IC50 of 20 nM.
In the case of `CO/C=C(/C(=O)OC)c1ccccc1COc1cc(F)cc(OCc2ccccc2)c1` [Compound 21, (E)-methyl 2-(2-((3-(benzyloxy)-5-fluorophenoxy)methyl)phenyl)-3-methoxyacrylate], the IC50 is reported as 490 nM.
For `CO/C=C(/C(=O)OC)c1ccccc1COc1ccc(/C(C)=N/O)cc1OC` [Compound 34, (E)-methyl 2-(2-((4-((E)-1-(hydroxyimino)ethyl)-2-methoxyphenoxy)-methyl)phenyl)-3-methoxyacrylate], the IC50 was 4480 nM.
`CO/C=C(/C(=O)OC)c1ccccc1COc1cc(F)cc(OCc2ccccn2)c1` [Compound 23, (E)-methyl 2-(2-((3-fluoro-5-(pyridin-2-ylmethoxy)phenoxy)methyl)-phenyl)-3-methoxyacrylate] was tested, and the IC50 was 230 nM.
`CO/C=C(/C(=O)OC)c1ccccc1COc1cc(F)cc(OCc2ccc([N+](=O)[O-])cc2)c1` [Compound 24, (E)-methyl 2-(2-((3-fluoro-5-(4-nitrobenzyloxy)phenoxy)methyl)phenyl)-3-methoxyacrylate] gave an IC50 of 640 nM.
`CO/C=C(/C(=O)OC)c1ccccc1COc1cccc(OCc2ccncc2)c1` [Compound 27, (E)-methyl 2-(2-((3-(pyridin-4-ylmethoxy)phenoxy)methyl)phenyl)-3-methoxyacrylate] showed an IC50 of 340 nM.
`CO/C=C(/C(=O)OC)c1ccccc1COc1ccc(F)c(OCc2ccccc2)c1F` [Compound 62, (E)-methyl 2-(2-((3-(benzyloxy)-2,4-difluorophenoxy)methyl)phenyl)-3-methoxyacrylate] gave an IC50 of 200 nM.
In the case of `CO/C=C(/C(=O)OC)c1ccccc1COc1cc(C)c(/C=N/OCc2ccncc2)cc1C` [Compound 74, (E)-methyl 2-(2-((4-((E)-(pyridin-4-ylmethoxyimino)methyl)-2,5-dimethylphenoxy)methyl)phenyl)-3-methoxyacrylate], the IC50 is reported as 60 nM.
Work on `CCO/N=C/c1cccc(OCc2ccccc2/C(=C\OC)C(=O)OC)c1` [Compound 4, (E)-methyl 2-(2-((3-((E)-(ethoxyimino)methyl)phenoxy)methyl)phenyl)-3-methoxyacrylate] yielded an IC50 of 290 nM.
`CO/C=C(/C(=O)OC)c1ccccc1COc1ccc(/C(C)=N/OCc2ccccc2)cc1OC` [Compound 36, (E)-methyl 2-(2-((4-((E)-1-(benzyloxyimino)ethyl)-2-methoxyphenoxy)-methyl)phenyl)-3-methoxyacrylate] was tested, and the IC50 was 880 nM.
`CCCO/N=C(\C)c1ccc(OCc2ccccc2/C(=C\OC)C(=O)OC)cc1` [Compound 8, (E)-methyl 2-(2-((4-((E)-1-(propoxyimino)ethyl)phenoxy)methyl)phenyl)-3-methoxyacrylate] showed an IC50 of 1110 nM.
`CCCOc1c(F)ccc(OCc2ccccc2/C(=C\OC)C(=O)OC)c1F` [Compound 65, (E)-methyl 2-(2-((2,4-difluoro-3-propoxyphenoxy)methyl)phenyl)-3-methoxyacrylate] showed an IC50 of 1000 nM.
In the case of `CO/C=C(/C(=O)OC)c1ccccc1COc1cc(C)cc(O)c1C` [Compound 55, (E)-methyl 2-(2-((3-hydroxy-2,5-dimethylphenoxy)methyl)phenyl)-3-methoxyacrylate], the IC50 is reported as 3690 nM.
Work on `CO/C=C(/C(=O)OC)c1ccccc1COc1cc(C)c(/C=N/OCCN2CCCC2)cc1C` [Compound 53, (E)-methyl 2-(2-((2,5-dimethyl-4-((E)-(2-(pyrrolidin-1-yl)ethoxyimino)-methyl)phenoxy)methyl)phenyl)-3-methoxyacrylate] yielded an IC50 of 6640 nM.
For `CO/C=C(/C(=O)OC)c1ccccc1COc1cc(C)c(/C(C)=N/OC)cc1C` [Compound 77, (E)-methyl 2-(2-((2,5-dimethyl-4-((E)-1-(methoxyimino)ethyl)phenoxy)-methyl)phenyl)-3-methoxyacrylate], the IC50 was 20 nM.

— patent publication US8772290B2, “Alpha-arylmethoxyacrylate derivative, preparation method thereof, and pharmaceutical composition containing same” (Oscotech Inc., priority 2010, dated 2014)
